Assay results: patent US20040109845A1, “Method for inhibiting articular cartilage matrix calcification” (priority 2001, published 2004)

How the values were obtained:
[1] = system: S100A11 mRNA in human articular chondrocytes; experiment: S100A11 mRNA expression by RT-PCR; type: cell-based; conditions: 10 ng/ml, 24 hours, relative to L30
Description: Normal human knee articular chondrocytes were treated in culture with IL-1 or IGF-I (10 ng/ml) for 24 hours and ascertained for S100A11 mRNA expression by RT-PCR, relative to the loading control L30, a ribosomal housekeeping gene. Results for induction of S100 A11 representative of 3 separate experiments with different donors.

[2] = system: meniscal cells and TC28 cells; experiment: Matrix calcification, quantitative Alizarin Red S binding assay; type: cell-based, human; conditions: polyHEME culture up to 10 days; cytokines 10 ng/ml or TGase transfection
Description: TC28 cells and meniscal cells were transfected with empty plasmid or a TGase expression construct, and then transferred to polyHEME and cultured for up to 10 days, as described above. For comparison purposes, control untransfected cells were treated with IL-1 or TGFβ(10 ng/ml each) for up to 10 days. To measure matrix calcification, media and cells were removed from the PolyHEME-coated dishes, and 1 ml Alizarin Red S solution (0.5% v/v Alizarin Red S, pH 5.0) added to washed plates at 23° C. for 10 min. After further washing, 100 mM Cetylpyridium Chloride was added for 10 min to release the remaining calcium-bound Alizarin Red S. The solution was collected and read at OD570, with 1.0 OD570=1 unit of Alizarin Red released per μg of DNA per culture dish. n=6 each, studied in triplicate, and using 6 different knee meniscal donors. *p<0.05.
To promote matrix calcification in short-term cultures, we modified a nonadherent chondrocyte culture system (37), and assessed cells that formed calcifying nodules over 10 days in culture. In brief, meniscal and TC28 cells, at 24 hours after the transfection, were washed and removed from the dish using 0.2 mg/ml EDTA, pH 8.0, then transferred to 6 well plates that had been previously coated with a 10% (wt./v) in 95% ethanol solution of Poly (2-Hydroxyethyl methacrylate) (polyHEME). […]
To assay calcification of the pericellular matrix of meniscal cells and TC28 cells, we used a quantitative Alizarin Red S binding assay (38). […] The solution was collected and read at OD570 on a SpectraMAX microplate reader (Molecular Devices, Sunnyvale, Calif.), with 1 OD570=1 unit of Alizarin Red released per μg of DNA per culture dish. We extracted matrix crystals from plates under each condition using a papain-hypochlorite method (39), and the crystals were embedded in Spurr epoxy resin, sectioned, and viewed on a Philips EM340 transmission electron micrograph and analyzed by electron diffraction (40,41).

**Q.** Which “S100A11 mRNA expression” value [1] does the source give for “IL-1β: Human recombinant IL-1β purchased from R&D Systems” here?
**A.** induce mRNA expression of S100A11

**Q.** What about the “Matrix calcification (bound Alizarin Red S)” value [2] of the same substance?
**A.** significantly increased matrix calcification
